# Assay results: PMC3714604 (European journal of medicinal chemistry, 2011)
# System: not listed separately
# Test: In vitro chemical stability at alkaline pH
# Format: physicochemical
# Conditions: 1 μM, 300 nM, 100 nM
row,Compound,dependence of pseudo half-lives on concentration at pH 9.0
1,O=C(NC1CCCCC1)Oc1cccc(-c2ccccc2)c1 [Compound 1],No significant difference
2,O=C(NC12CC3CC(CC(C3)C1)C2)Oc1cccc(-c2ccccc2)c1 [Compound 10],No significant difference
3,O=C(NCCCCc1ccccc1)Oc1cccc(-c2ccccc2)c1 [Compound 16],No significant difference

# System: not listed separately
# Test: In vitro stability in rat liver S9 fraction with NADPH-regenerating system
# Format: in vitro ADME
# Conditions: male, Wistar, rat, s9, pH 7.4
row,Compound,half-life
1,CC(C)NC(=O)Oc1cccc(-c2ccccc2)c1 [Compound 4],< 2 min
2,CCCCNC(=O)Oc1cccc(-c2ccccc2)c1 [Compound 5],< 2 min
3,O=C(NC1Cc2ccccc2C1)Oc1cccc(-c2ccccc2)c1 [Compound 13],> 60 min

# Same assay, conditions: rat liver S9, entire testing period
row,Compound,stability to in vitro liver metabolism
1,O=C(NC12CC3CC(CC(C3)C1)C2)Oc1cccc(-c2ccccc2)c1 [Compound 10],remained stable for the entire testing period

# System: rat brain membrane FAAH
# Test: not given
# Conditions: cited from earlier work
row,Compound,"pIC50, inhibitory potency toward FAAH in vitro activity"
1,NC(=O)c1cccc(-c2cccc(OC(=O)NCc3ccc4ccccc4c3)c2)c1 [Compound 19],9.20

# Same assay, conditions: rat brain membrane FAAH activity; ref [24] and [38]; cited from earlier work
row,Compound,"pIC50, inhibitory potency toward FAAH in vitro activity"
1,O=C(NC1CCCCC1)Oc1cccc(-c2ccccc2)c1 [Compound 1],7.20
2,CNC(=O)Oc1cccc(-c2ccccc2)c1 [Compound 3],4.86
3,CC(C)NC(=O)Oc1cccc(-c2ccccc2)c1 [Compound 4],6.28
4,CCCCNC(=O)Oc1cccc(-c2ccccc2)c1 [Compound 5],6.95
5,CCCCCCNC(=O)Oc1cccc(-c2ccccc2)c1 [Compound 6],7.24
6,O=C(NC1CCC1)Oc1cccc(-c2ccccc2)c1 [Compound 7],7.27
7,O=C(NC1CCCC1)Oc1cccc(-c2ccccc2)c1 [Compound 8],7.47
8,O=C(NCC1CCCCC1)Oc1cccc(-c2ccccc2)c1 [Compound 9],7.18
9,O=C(NC12CC3CC(CC(C3)C1)C2)Oc1cccc(-c2ccccc2)c1 [Compound 10],5.39
10,O=C(NCc1ccccc1)Oc1cccc(-c2ccccc2)c1 [Compound 11],6.86
11,O=C(NCCc1ccccc1)Oc1cccc(-c2ccccc2)c1 [Compound 12],6.32
12,O=C(NC1Cc2ccccc2C1)Oc1cccc(-c2ccccc2)c1 [Compound 13],6.67
13,O=C(NCc1ccc2ccccc2c1)Oc1cccc(-c2ccccc2)c1 [Compound 15],8.27
14,O=C(NCCCCc1ccccc1)Oc1cccc(-c2ccccc2)c1 [Compound 16],8.03
15,O=C(NCCCCCCc1ccccc1)Oc1cccc(-c2ccccc2)c1 [Compound 17],7.89
16,O=C(NCCCCCCN1CCOCC1)Oc1cccc(-c2ccccc2)c1 [Compound 18],7.40

# System: FAAH
# Test: not given
# Conditions: rats; ref [24]; cited from earlier work
row,Compound,"ID50, in vivo potency on FAAH inhibition"
1,O=C(NC1CCCCC1)Oc1cccc(-c2ccccc2)c1 [Compound 1],0.81 mg/kg
2,O=C(NCCCCc1ccccc1)Oc1cccc(-c2ccccc2)c1 [Compound 16],0.96 mg/kg
